Results reported in patent US20230146455A1, “TREATMENT OF INFLAMMATORY DISEASES WITH PEPTIDES AND PHARMACEUTICAL COMPOSITIONS” (Yuyu Pharma, Inc., priority 2020, published 2023).
Where “and” joins values, the source holds several entries; their conditions need not be identical. Equal values may be shown once. Where a SMILES comes first, the peptide text is derived from it. [ ]: non-standard residue; d: D form. Hyp = O=C(O)[C@@H]1C[C@@H](O)CN1

System: IL-17A
Test: Example 9 Luminex, LPS hPBMCs: IL-17A
Format: cell-based, human
Method: Treatment Human PBMCs were pretreated with YY-101, YDE-011 and YDE-043 or reference compound; Xiidra® at various concentration (ranging from 1 nM to 100 uM) for 2 h before stimulation. An equal volume of 0.5% DMSO was used as a vehicle control. Then, the cells were treated with LPS at 5 ug/ml. The supernatants from treated cells were harvested at 24 h and placed in a 96 well for Luminex cytokine & chemokine profiling using a Luminex 200 multiplex assay (Luminex; R&D system, USA).
The main study arm with triplicate wells per group in a 24-well plate: • 1. Blank • 2. PBMC: 0.5% DMSO • 3. PBMC+LPS (5 ug/ml) • 4. PBMC+YY-101 100 uM • 5. PBMC+YY-101 10 uM • 6. PBMC+YY-101 1 uM • 7. PBMC+YY-101 0.1 uM • 8. PBMC+YY-101 0.01 uM • 9. PBMC+LPS (5 ug/ml)+Xiidra®100 uM • 10. PBMC+LPS (5 ug/ml)+Xiidra® 10 uM • 11. PBMC+LPS (5 ug/ml)+Xiidra® 1 uM • 12. PBMC+LPS (5 ug/ml)+Xiidra®0.1 uM • 13. PBMC+LPS (5 ug/ml)+Xiidra®0.01 uM • 14. PBMC+LPS (5 ug/ml)+Xiidra®0.001 uM • 15. PBMC+LPS (5 ug/ml)+YY-101 100 uM • 16. PBMC+LPS (5 ug/ml)+YY-101 10 uM • 17. PBMC+LPS (5 ug/ml)+YY-101 1 uM • 18. PBMC+LPS (5 ug/ml)+YY-101 0.1 uM • 19. PBMC+LPS (5 ug/ml)+YY-101 0.01 uM • 20. PBMC+LPS (5 ug/ml)+YY-101 0.001 uM • 21. PBMC+LPS (5 ug/ml)+YDE-011 100 uM • 22. PBMC+LPS (5 ug/ml)+YDE-011 10 uM • 23. PBMC+LPS (5 ug/ml)+YDE-011 1 uM • 24. PBMC+LPS (5 ug/ml)+YDE-011 0.1 uM • 25. PBMC+LPS (5 ug/ml)+YDE-011 0.01 uM • 26. PBMC+LPS (5 ug/ml)+YDE-011 0.001 uM • 27. PBMC+LPS (5 ug/ml)+YDE-043 100 uM • 28. PBMC+LPS (5 ug/ml)+YDE-043 10 uM • 29. PBMC+LPS (5 ug/ml)+YDE-043 1 uM • 30. PBMC+LPS (5 ug/ml)+YDE-043 0.1 uM • 31. PBMC+LPS (5 ug/ml)+YDE-043 0.01 uM • 32. PBMC+LPS (5 ug/ml)+YDE-043 0.001 uM
Multiplex assay was used to measure 30 cytokines and chemokines. The 1:2, 1:10 and 1:200 diluted cell supernatant and serial dilution of the standard were dispensed into a 96 well plate at 50 ul/well. Then, the pre-mixed cocktail of antibody-coated magnetic beads was dispensed at 50 ul/well and incubated at room temperature for 2 h in a horizontal orbital microplate shaker at 800±500 rpm. The beads were washed using a magnetic device to prevent loss. The biotin-antibody was dispensed in 50 ul of each well and incubated at room temperature for 1 h in a shaker at 800±500 rpm. After washing, streptavidin-PE was added at 50 ul/well and incubated at room temperature for 30 min in a shaker under the same conditions. Finally, after washing, wash buffer (100 ul/well) was added to the plate and incubated in a shaker for 2 min. The Luminex™ 200 setting were set according to the manufacturer's protocol. The data was calculated with a standard five-parameter logistic nonlinear regression analysis of the data (xPonent software 4.2, USA). The levels of cytokine/chemokine are normalized to the live cell counts (1×10^5 cells/mL) and presented as concentrations per mL (pg/mL or ng/mL).

[1] = PBMC + LPS(5 ug/ml) + test article 0.001 uM, Mean
[2] = PBMC + LPS(5 ug/ml) + test article 0.001 uM, single replicates (1st, 2nd, 3rd)
[3] = PBMC + LPS(5 ug/ml) + test article 0.01 uM, Mean
[4] = PBMC + LPS(5 ug/ml) + test article 0.01 uM, single replicates (1st, 2nd, 3rd)
[5] = PBMC + LPS(5 ug/ml) + test article 0.1 uM, Mean
[6] = PBMC + LPS(5 ug/ml) + test article 0.1 uM, single replicates (1st, 2nd, 3rd)
[7] = PBMC + LPS(5 ug/ml) + test article 1 uM, Mean
[8] = PBMC + LPS(5 ug/ml) + test article 1 uM, single replicates (1st, 2nd, 3rd)
[9] = PBMC + LPS(5 ug/ml) + test article 10 uM, Mean
[10] = PBMC + LPS(5 ug/ml) + test article 10 uM, single replicates (1st, 2nd, 3rd)
[11] = PBMC + LPS(5 ug/ml) + test article 100 uM, Mean
[12] = PBMC + LPS(5 ug/ml) + test article 100 uM, single replicates (1st, 2nd, 3rd)

Structure (SMILES) | Concentration, IL-17A [1] | MFI, Bead name: IL-17A [1] | conc/live cell, IL-17A [1] | Concentration, IL-17A [2] | MFI, Bead name: IL-17A [2] | conc/live cell, IL-17A [2] | Concentration, IL-17A [3] | MFI, Bead name: IL-17A [3] | conc/live cell, IL-17A [3] | Concentration, IL-17A [4] | MFI, Bead name: IL-17A [4] | conc/live cell, IL-17A [4] | Concentration, IL-17A [5] | MFI, Bead name: IL-17A [5] | conc/live cell, IL-17A [5] | Concentration, IL-17A [6] | MFI, Bead name: IL-17A [6] | conc/live cell, IL-17A [6] | Concentration, IL-17A [7] | MFI, Bead name: IL-17A [7] | also measured
CC(C)C[C@H](NC(=O)[C@H](CCC(N)=O)NC(=O)CNC(=O)[C@@H]1C[C@@H](O)CN1)C(=O)NCC(=O)O [YDE-043] (H-[Hyp]GQLG-OH; N-terminus and C-terminus assumed) | 1.0 pg/mL | 0.2 | 0.2 pg/10^5 | 1.0 pg/mL | 0.5 (2×) and −0.5 | 0.2 pg/10^5 (2×) and 0.0 pg/10^5 | 1.0 pg/mL | 0.5 | 0.2 pg/10^5 | 1.0 pg/mL | 0.5 | 0.2 pg/10^5 | 1.6 pg/mL | 0.8 | 0.3 pg/10^5 | 2.7 pg/ml and 1.0 pg/ml (2×) | 1.5 and 0.5 (2×) | 0.5 pg/10^5 and 0.2 pg/10^5 (2×) | 1.9 pg/mL | 0.5 | conc/live cell, IL-17A [7]: 0.2 pg/10^5; Concentration, IL-17A [8]: 1.0 pg/mL and 2.7 pg/mL; MFI, Bead name: IL-17A [8]: 0.5 and −0.5 and 1.5; conc/live cell, IL-17A [8]: 0.2 pg/10^5 and 0.0 pg/10^5 and 0.5 pg/10^5; Concentration, IL-17A [9]: 1.3 pg/mL; MFI, Bead name: IL-17A [9]: 0.7; conc/live cell, IL-17A [9]: 0.2 pg/10^5; Concentration, IL-17A [10]: 0.1 pg/mL and 2.7 pg/mL and 1.0 pg/mL; MFI, Bead name: IL-17A [10]: 0.0 and 1.5 and 0.5; conc/live cell, IL-17A [10]: 0.0 pg/10^5 and 0.5 pg/10^5 and 0.2 pg/10^5; MFI, Bead name: IL-17A [11]: −0.5; conc/live cell, IL-17A [11]: 0.0 pg/10^5; MFI, Bead name: IL-17A [12]: −0.5; conc/live cell, IL-17A [12]: 0.0 pg/10^5
CC(C)C[C@H](NC(=O)CNC(=O)[C@H](CC(C)C)NC(=O)[C@H](CCC(N)=O)NC(=O)CNC(=O)[C@@H]1C[C@@H](O)CN1)C(=O)N[C@@H](C)C(=O)NCC(=O)N1CCC[C@H]1C(=O)N[C@@H](CCCCN)C(=O)O [YDE-011] (H-[Hyp]GQLGLAGPK-OH) | 3.3 pg/mL | 1.8 | 0.6 pg/10^5 | 4.3 pg/ml and 2.7 pg/ml (2×) | 2.5 and 1.5 (2×) | 1.0 pg/10^5 and 0.5 pg/10^5 (2×) | 2.1 pg/mL | 1.2 | 0.4 pg/10^5 | 1.0 pg/ml (2×) and 4.3 pg/ml | 0.5 (2×) and 2.5 | 0.2 pg/10^5 (2×) and 0.9 pg/10^5 | 1.6 pg/mL | 0.8 | 0.3 pg/10^5 | 2.7 pg/ml and 1.0 pg/ml (2×) | 1.5 and 0.5 (2×) | 0.4 pg/10^5 and 0.2 pg/10^5 (2×) | 3.8 pg/mL | 2.2 | conc/live cell, IL-17A [7]: 0.8 pg/10^5; Concentration, IL-17A [8]: 4.3 pg/ml (2×) and 2.7 pg/ml; MFI, Bead name: IL-17A [8]: 2.5 (2×) and 1.5; conc/live cell, IL-17A [8]: 0.8 pg/10^5 and 0.9 pg/10^5 and 0.6 pg/10^5; Concentration, IL-17A [9]: 2.7 pg/mL; MFI, Bead name: IL-17A [9]: 0.8; conc/live cell, IL-17A [9]: 0.3 pg/10^5; Concentration, IL-17A [10]: 2.7 pg/mL; MFI, Bead name: IL-17A [10]: 1.5 (2×) and −0.5; conc/live cell, IL-17A [10]: 0.5 pg/10^5 (2×) and 0.0 pg/10^5; Concentration, IL-17A [11]: 1.0 pg/mL; MFI, Bead name: IL-17A [11]: 0.2; conc/live cell, IL-17A [11]: 0.1 pg/10^5; Concentration, IL-17A [12]: 1.0 pg/mL; MFI, Bead name: IL-17A [12]: 0.5 (2×) and −0.5; conc/live cell, IL-17A [12]: 0.2 pg/10^5 (2×) and 0.0 pg/10^5
